Assay [1] has as its target T1, human α1G T-type channels (Homo sapiens, UniProt O43497).
T1 construct: expressed in transfected cells; host or cells: HEK 293
In words: T-type calcium channel block, whole cell patch clamp in HEK cells. The settings on record: measured at 1 μM drug, mainly non-inactivated protocol. The assay is classed as cell-based. As to the method:
(§1) T-type calcium channel blocking activity was assayed in human embryonic kidney cells, HEK 293, stably transfected with the T-type calcium channel subunits. Briefly, cells were cultured in Dulbecco's modified eagle medium (DMEM) supplemented with 10% fetal bovine serum, 200 U/ml penicillin and 0.2 mg/ml streptomycin at 37° C. with 5% CO2. At 85% confluency cells were split with 0.25% trypsin/1 mM EDTA and plated at 10% confluency on glass coverslips. At 12 hours the medium was replaced and the cells stably transfected using a standard calcium phosphate protocol and the appropriate calcium channel cDNA's. Fresh DMEM was supplied and the cells transferred to 28° C./5% CO2. Cells were incubated for 1 to 2 days prior to whole cell recording.
(§2) Standard patch-clamp techniques were employed to identify blockers of T-type currents. Briefly, previously described HEK cell lines stably expressing human α1G, α1H and α1I T-type channels were used for all the recordings (passage #: 4-20, 37° C., 5% CO2). Whole cell patch clamp experiments were performed using an Axopatch 200B amplifier (Axon Instruments, Burlingame, Calif.) linked to a personal computer equipped with pCLAMP software. Data were analyzed using Clampfit (Axon Instruments) and SigmaPlot 4.0 (Jandel Scientific). To obtain T-type currents, plastic dishes containing semi-confluent cells were positioned on the stage of a ZEISS AXIOVERT S100 microscope after replacing the culture medium with external solution (see below). Whole-cell patches were obtained using pipettes (borosilicate glass with filament, O.D.: 1.5 mm, I.D.: 0.86 mm, 10 cm length), fabricated on a SUTTER P-97 puller with resistance values of ˜5 MΩ (see below for internal solution).
(§3) T-type currents were reliably obtained by using two voltage protocols: • (1) “non-inactivating”, and • (2) “inactivation”
(§4) In the non-inactivating protocol, the holding potential is set at −110 mV and with a pre-pulse at −100 mV for 1 second prior to the test pulse at −40 mV for 50 ms. In the inactivation protocol, the pre-pulse is at approximately −85 mV for 1 second, which inactivates about 15% of the T-type channels.
(§5) Test compounds were dissolved in external solution, 0.1-0.01% DMSO. After 10 min rest, they were applied by gravity close to the cell using a WPI microfil tubing. The “non-inactivated” pre-pulse was used to examine the resting block of a compound. The “inactivated” protocol was employed to study voltage-dependent block. However, the initial data shown below were mainly obtained using the non-inactivated protocol only. Kd values are shown for various compounds of the invention in Table 4 measured at 1 μM for the drug of interest except for compound 18 which was measured at 200 nM.

Assay [2] concerns the target T2, human α1H T-type channels (Homo sapiens, UniProt O95180).
T2 construct: expressed in transfected cells; host or cells: HEK 293
The description is as above. The following applies: measured at 1 μM drug, mainly non-inactivated protocol. The class given is cell-based. The method, then:
as §1, §2, §3, §4, §5

T2 sequence (O95180 whole entry): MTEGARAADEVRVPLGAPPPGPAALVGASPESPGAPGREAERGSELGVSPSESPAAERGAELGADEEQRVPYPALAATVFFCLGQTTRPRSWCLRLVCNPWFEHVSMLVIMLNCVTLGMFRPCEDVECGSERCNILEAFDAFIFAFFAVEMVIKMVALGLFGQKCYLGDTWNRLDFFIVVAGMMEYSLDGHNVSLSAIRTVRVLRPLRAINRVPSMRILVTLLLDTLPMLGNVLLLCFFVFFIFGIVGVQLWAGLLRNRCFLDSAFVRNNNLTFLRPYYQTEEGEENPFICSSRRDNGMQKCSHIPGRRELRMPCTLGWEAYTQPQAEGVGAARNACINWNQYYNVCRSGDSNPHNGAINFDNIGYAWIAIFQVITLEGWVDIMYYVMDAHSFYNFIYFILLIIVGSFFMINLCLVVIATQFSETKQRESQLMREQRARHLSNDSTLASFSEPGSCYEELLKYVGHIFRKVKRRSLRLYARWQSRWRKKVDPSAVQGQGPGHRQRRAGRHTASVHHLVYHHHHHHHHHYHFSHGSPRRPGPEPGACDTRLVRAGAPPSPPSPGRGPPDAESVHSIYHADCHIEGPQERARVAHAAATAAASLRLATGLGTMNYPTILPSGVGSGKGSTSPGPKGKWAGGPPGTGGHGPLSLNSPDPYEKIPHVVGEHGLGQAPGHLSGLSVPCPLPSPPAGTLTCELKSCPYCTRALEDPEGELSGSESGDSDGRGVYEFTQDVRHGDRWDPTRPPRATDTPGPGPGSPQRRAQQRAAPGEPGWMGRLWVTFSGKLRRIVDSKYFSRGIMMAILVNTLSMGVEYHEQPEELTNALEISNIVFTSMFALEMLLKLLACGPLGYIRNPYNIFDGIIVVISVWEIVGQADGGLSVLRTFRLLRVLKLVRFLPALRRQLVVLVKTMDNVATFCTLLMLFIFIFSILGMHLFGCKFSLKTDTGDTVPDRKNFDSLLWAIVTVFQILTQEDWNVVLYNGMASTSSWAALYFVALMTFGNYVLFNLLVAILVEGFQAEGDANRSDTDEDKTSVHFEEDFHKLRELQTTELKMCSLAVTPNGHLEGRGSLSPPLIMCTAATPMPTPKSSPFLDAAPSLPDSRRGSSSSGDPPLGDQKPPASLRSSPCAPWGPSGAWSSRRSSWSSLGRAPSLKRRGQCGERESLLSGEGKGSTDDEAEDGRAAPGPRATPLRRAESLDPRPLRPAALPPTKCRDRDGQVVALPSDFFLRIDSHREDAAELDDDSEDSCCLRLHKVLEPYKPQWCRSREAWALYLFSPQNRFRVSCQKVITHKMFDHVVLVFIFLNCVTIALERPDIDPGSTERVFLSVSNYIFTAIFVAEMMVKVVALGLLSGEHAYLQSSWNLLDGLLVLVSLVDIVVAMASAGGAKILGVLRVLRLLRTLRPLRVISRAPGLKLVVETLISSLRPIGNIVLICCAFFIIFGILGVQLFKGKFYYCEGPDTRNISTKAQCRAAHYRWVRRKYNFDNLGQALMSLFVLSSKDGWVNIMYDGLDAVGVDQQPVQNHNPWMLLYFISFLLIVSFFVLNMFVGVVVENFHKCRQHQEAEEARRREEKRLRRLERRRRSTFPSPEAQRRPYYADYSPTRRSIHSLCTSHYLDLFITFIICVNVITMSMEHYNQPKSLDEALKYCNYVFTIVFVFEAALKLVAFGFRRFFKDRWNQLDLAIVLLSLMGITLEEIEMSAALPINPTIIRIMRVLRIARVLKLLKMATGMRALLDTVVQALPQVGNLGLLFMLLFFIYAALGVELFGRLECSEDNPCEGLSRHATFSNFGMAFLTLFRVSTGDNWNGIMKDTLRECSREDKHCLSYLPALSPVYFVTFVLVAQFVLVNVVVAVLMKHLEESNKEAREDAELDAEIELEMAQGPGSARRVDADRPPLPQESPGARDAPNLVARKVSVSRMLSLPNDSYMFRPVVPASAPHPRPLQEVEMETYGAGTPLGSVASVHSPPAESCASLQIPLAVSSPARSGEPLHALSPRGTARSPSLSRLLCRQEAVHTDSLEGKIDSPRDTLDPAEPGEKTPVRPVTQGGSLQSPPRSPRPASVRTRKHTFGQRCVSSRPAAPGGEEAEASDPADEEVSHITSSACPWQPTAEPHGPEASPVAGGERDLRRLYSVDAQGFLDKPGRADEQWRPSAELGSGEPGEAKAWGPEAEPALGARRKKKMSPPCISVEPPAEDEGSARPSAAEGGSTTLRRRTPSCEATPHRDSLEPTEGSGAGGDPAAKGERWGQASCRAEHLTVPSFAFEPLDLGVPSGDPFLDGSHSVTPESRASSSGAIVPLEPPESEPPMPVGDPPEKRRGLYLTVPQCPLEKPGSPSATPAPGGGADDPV
T1 sequence (O43497 whole entry): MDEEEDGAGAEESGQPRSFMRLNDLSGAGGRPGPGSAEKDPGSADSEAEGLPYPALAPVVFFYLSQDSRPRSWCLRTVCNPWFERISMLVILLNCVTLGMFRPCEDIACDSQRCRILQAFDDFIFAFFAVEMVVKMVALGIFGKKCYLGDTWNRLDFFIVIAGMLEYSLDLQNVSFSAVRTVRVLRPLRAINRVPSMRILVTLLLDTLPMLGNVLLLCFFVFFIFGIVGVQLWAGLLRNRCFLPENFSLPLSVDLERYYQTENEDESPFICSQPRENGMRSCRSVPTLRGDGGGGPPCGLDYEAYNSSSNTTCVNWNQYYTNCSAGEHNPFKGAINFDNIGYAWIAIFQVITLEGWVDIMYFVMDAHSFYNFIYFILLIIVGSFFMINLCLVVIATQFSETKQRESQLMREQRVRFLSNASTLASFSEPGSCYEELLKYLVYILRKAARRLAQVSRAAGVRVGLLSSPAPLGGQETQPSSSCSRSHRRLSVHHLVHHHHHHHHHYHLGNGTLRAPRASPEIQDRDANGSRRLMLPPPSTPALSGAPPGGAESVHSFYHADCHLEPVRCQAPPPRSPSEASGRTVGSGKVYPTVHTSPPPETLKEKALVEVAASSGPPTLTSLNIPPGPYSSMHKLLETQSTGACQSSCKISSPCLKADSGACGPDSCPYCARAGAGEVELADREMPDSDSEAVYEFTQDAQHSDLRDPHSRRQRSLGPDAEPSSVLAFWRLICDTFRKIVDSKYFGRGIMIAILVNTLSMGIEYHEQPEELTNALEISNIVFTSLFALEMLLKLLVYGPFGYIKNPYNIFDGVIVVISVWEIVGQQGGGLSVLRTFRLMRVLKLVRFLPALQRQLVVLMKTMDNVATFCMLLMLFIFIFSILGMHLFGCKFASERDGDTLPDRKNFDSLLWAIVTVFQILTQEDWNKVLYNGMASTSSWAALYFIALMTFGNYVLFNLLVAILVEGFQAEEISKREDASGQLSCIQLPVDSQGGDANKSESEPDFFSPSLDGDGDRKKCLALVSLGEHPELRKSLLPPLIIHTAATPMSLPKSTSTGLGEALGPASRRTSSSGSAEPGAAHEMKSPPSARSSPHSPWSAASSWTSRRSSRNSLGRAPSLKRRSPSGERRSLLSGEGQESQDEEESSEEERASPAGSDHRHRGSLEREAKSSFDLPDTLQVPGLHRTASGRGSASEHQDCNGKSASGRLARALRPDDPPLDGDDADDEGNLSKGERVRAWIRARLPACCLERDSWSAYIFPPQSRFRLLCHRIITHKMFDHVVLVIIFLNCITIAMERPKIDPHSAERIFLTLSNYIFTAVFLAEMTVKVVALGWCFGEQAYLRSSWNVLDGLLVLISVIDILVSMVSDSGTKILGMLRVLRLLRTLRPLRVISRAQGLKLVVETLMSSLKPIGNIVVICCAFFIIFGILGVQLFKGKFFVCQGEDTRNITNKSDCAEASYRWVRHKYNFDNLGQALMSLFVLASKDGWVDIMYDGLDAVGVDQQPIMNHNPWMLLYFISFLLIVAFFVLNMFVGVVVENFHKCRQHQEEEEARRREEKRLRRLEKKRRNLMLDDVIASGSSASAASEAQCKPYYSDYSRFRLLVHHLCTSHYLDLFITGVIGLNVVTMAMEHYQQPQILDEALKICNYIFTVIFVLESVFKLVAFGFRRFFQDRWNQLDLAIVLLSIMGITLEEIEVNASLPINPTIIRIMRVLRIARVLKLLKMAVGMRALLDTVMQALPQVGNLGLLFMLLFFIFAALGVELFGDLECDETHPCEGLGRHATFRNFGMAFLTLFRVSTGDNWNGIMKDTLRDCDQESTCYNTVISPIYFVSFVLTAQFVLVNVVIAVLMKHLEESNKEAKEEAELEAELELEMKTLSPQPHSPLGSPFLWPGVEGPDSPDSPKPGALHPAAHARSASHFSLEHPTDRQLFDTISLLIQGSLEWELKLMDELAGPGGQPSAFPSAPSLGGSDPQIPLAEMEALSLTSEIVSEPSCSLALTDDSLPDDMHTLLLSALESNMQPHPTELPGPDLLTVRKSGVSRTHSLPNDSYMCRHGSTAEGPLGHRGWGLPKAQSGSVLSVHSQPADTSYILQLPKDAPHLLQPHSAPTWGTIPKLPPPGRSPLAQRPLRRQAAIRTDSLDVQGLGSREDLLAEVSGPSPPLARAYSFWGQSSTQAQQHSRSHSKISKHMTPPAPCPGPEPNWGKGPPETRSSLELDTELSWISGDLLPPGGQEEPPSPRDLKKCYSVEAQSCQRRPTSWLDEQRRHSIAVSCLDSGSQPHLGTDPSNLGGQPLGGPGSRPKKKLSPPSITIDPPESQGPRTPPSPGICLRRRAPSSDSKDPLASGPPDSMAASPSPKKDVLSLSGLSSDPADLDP

By Kd is commonly meant the constant that tells how readily two partners part at equilibrium. Turning to `CN1CCC(NC(=O)/C=C/c2ccc(F)cc2)(C(=O)Nc2cc(C(F)(F)F)cc(C(F)(F)F)c2)CC1` [Compound 42, (E)-N-(3,5-bis(trifluoromethyl)phenyl)-4-(3-(4-fluorophenyl)acrylamido)-1-methylpiperidine-4-carboxamide], the Kd in assay [1] was 220 nM; in assay [2], 41900 nM. With `O=C(/C=C/c1ccc(F)cc1)NC1(C(=O)Nc2cc(C(F)(F)F)cc(C(F)(F)F)c2)CCN(c2ncccn2)CC1` [Compound 52, (E)-N-(3,5-bis(trifluoromethyl)phenyl)-4-(3-(4-fluorophenyl)acrylamido)-1-(pyrimidin-2-yl)piperidine-4-carboxamide], in assay [1], the Kd was found to be 160 nM.

Consider `O=C(/C=C/c1ccc(F)cc1)NC1(C(=O)Nc2cc(Cl)cc(Cl)c2)CCNCC1` [Compound 44, (E)-N-(3,5-dichlorophenyl)-4-(3-(4-fluorophenyl)acrylamido)piperidine-4-carboxamide], for which the values for the equilibrium dissociation constant (Kd) in assay [1] and in assay [2] were 320 nM and 1610 nM, respectively. Take `O=C(/C=C/c1ccc(F)c(F)c1)NC1(C(=O)Nc2ccccc2Oc2ccccc2)CCNCC1` [Compound 50, (E)-4-(3-(3,4-difluorophenyl)acrylamido)-N-(2-phenoxyphenyl)piperidine-4-carboxamide]: the Kd came out at 80 nM in assay [1] and 2970 nM in assay [2]. As to `COCCN1CCC(NC(=O)/C=C/c2ccc(F)cc2)(C(=O)Nc2cc(C(F)(F)F)cc(C(F)(F)F)c2)CC1` [Compound 57, (E)-N-(3,5-bis(trifluoromethyl)phenyl)-4-(3-(4-fluorophenyl)acrylamido)-1-(2-methoxyethyl)piperidine-4-carboxamide], in assay [1], the Kd is 130 nM. Take `CCNC(=O)N1CCC(NC(=O)/C=C/c2ccc(F)c(Br)c2)(C(=O)NCCc2c[nH]c3ccc(F)cc23)CC1` [Compound 26, (E)-4-(3-(3-bromo-4-fluorophenyl)acrylamido)-N1-ethyl-N4-(2-(5-fluoro-1H-indol-3-yl)ethyl)piperidine-1,4-dicarboxamide]: the Kd in assay [1] came out at 550 nM. Turning to `CN(CCc1c[nH]c2ccc(F)cc12)C(=O)C1(NC(=O)/C=C/c2ccc(F)cc2)CCN(C(=O)CN)CC1` [Compound 67, (E)-1-(2-aminoacetyl)-N-(2-(5-fluoro-1H-indol-3-yl)ethyl)-4-(3-(4-fluorophenyl)acrylamido)-N-methylpiperidine-4-carboxamide], in assay [1], the Kd came to 1020 nM. For `O=C(/C=C\c1ccccc1)NC1(C(=O)Nc2cc(C(F)(F)F)cc(C(F)(F)F)c2)CCNCC1` [Compound 40, (Z)-N-(3,5-bis(trifluoromethyl)phenyl)-4-(3-phenylacrylamido)piperidine-4-carboxamide], the Kd in assay [1] was found to be 130 nM; in assay [2], 2420 nM. With `NCC(=O)N1CCC(NC(=O)/C=C/c2ccc(F)cc2)(C(=O)Nc2cc(C(F)(F)F)cc(C(F)(F)F)c2)CC1` [Compound 63, (E)-1-(2-aminoacetyl)-N-(3,5-bis(trifluoromethyl)phenyl)-4-(3-(4-fluorophenyl)acrylamido)piperidine-4-carboxamide], the dissociation constant Kd in assay [1] was 90 nM. Still for that read-out and setting: next, `CN(CCc1c[nH]c2ccc(F)cc12)C(=O)C1(NC(=O)/C=C/c2ccc(F)cc2)CCNCC1` [Compound 49, (E)-N-(2-(5-fluoro-1H-indol-3-yl)ethyl)-4-(3-(4-fluorophenyl)acrylamido)-N-methylpiperidine-4-carboxamide]: 580 nM; `NC(=O)CN1CCC(NC(=O)/C=C/c2ccc(F)cc2)(C(=O)Nc2cc(C(F)(F)F)cc(C(F)(F)F)c2)CC1` [Compound 62, (E)-1-(2-amino-2-oxoethyl)-N-(3,5-bis(trifluoromethyl)phenyl)-4-(3-(4-fluorophenyl)acrylamido)piperidine-4-carboxamide]: 280 nM. Still for that read-out and setting: next, `COCCC(=O)N1CCC(NC(=O)/C=C/c2ccc(F)c(Br)c2)(C(=O)NCCc2c[nH]c3ccc(F)cc23)CC1` [Compound 25, (E)-4-(3-(3-bromo-4-fluorophenyl)acrylamido)-N-(2-(5-fluoro-1H-indol-3-yl)ethyl)-1-(3-methoxypropanoyl)piperidine-4-carboxamide]: 5370 nM. As for `CC(=O)N1CCC(NC(=O)/C=C/c2ccc(F)c(Br)c2)(C(=O)NCCc2c[nH]c3ccc(F)cc23)CC1` [Compound 21, (E)-1-acetyl-4-(3-(3-bromo-4-fluorophenyl)acrylamido)-N-(2-(5-fluoro-1H-indol-3-yl)ethyl)piperidine-4-carboxamide], the Kd in assay [1] turned out to be 2620 nM. For the compound `O=C(/C=C/c1ccc(F)cc1)NC1(C(=O)Nc2cc(C(F)(F)F)cc(C(F)(F)F)c2)CCC(O)CC1` (stereo not shown) [Compound 56, (E)-N-(3,5-bis(trifluoromethyl)phenyl)-1-(3-(4-fluorophenyl)acrylamido)-4-hydroxycyclohexanecarboxamide], the Kd in assay [1] amounted to 1060 nM. As to `O=C(/C=C/c1ccc(F)cc1)NC1(C(=O)Nc2ccccc2C(F)(F)F)CCNCC1` [Compound 46, (E)-4-(3-(4-fluorophenyl)acrylamido)-N-(2-(trifluoromethyl)phenyl)piperidine-4-carboxamide], the dissociation constant (Kd) in assay [1] turned out to be 14600 nM. `CN(CCc1c[nH]c2ccc(F)cc12)C(=O)C1(NC(=O)/C=C/c2ccc(F)cc2)CCN(CC(N)=O)CC1` [Compound 65, (E)-1-(2-amino-2-oxoethyl)-N-(2-(5-fluoro-1H-indol-3-yl)ethyl)-4-(3-(4-fluorophenyl)acrylamido)-N-methylpiperidine-4-carboxamide]: the Kd in assay [1] turned out to be 2570 nM. Take `O=C(/C=C/c1ccc(F)cc1)NC1(C(=O)Nc2cccc(C(F)(F)F)c2)CCNCC1` [Compound 33, (E)-4-(3-(4-fluorophenyl)acrylamido)-N-(3-(trifluoromethyl)phenyl)piperidine-4-carboxamide]: the Kd in assay [1] amounted to 2450 nM. With `CC(C)(O)C(=O)N1CCC(NC(=O)/C=C/c2ccc(F)cc2)(C(=O)Nc2cc(C(F)(F)F)cc(C(F)(F)F)c2)CC1` [Compound 66, (E)-N-(3,5-bis(trifluoromethyl)phenyl)-4-(3-(4-fluorophenyl)acrylamido)-1-(2-hydroxy-2-methylpropanoyl)piperidine-4-carboxamide], the Kd in assay [1] came out at 1630 nM. Same read-out and setting: as for `COCCOC1CCC(NC(=O)/C=C/c2ccc(F)cc2)(C(=O)Nc2cc(C(F)(F)F)cc(C(F)(F)F)c2)CC1` (stereo not shown) [Compound 61, (E)-N-(3,5-bis(trifluoromethyl)phenyl)-1-(3-(4-fluorophenyl)acrylamido)-4-(2-methoxyethoxy)cyclohexanecarboxamide], the figure is 990 nM; as for `O=C(NCCc1c[nH]c2ccc(F)cc12)C1CCCN1C(=O)/C=C/c1ccc(F)c(Br)c1` (stereo in doubt) [Compound 19, (R,E)-1-(3-(3-bromo-4-fluorophenyl)acryloyl)-N-(2-(5-fluoro-1H-indol-3-yl)ethyl)pyrrolidine-2-carboxamide], 1350 nM. Consider `Cc1cc(/C=C/C(=O)NC2(C(=O)Nc3cc(C(F)(F)F)cc(C(F)(F)F)c3)CCN(C)CC2)ccc1F` [Compound 43, (E)-N-(3,5-bis(trifluoromethyl)phenyl)-4-(3-(4-fluoro-3-methylphenyl)acrylamido)-1-methylpiperidine-4-carboxamide], for which the figures for the Kd in assay [1] and in assay [2] were 80 nM and 1120 nM, respectively. With `O=C(/C=C/c1ccc(F)cc1)NC1(C(=O)Nc2cc(C(F)(F)F)cc(C(F)(F)F)c2)CCN(C2CCOCC2)CC1` [Compound 54, (E)-N-(3,5-bis(trifluoromethyl)phenyl)-4-(3-(4-fluorophenyl)acrylamido)-1-(tetrahydro-2H-pyran-4-yl)piperidine-4-carboxamide], the Kd in assay [1] is 210 nM; in assay [2], 6320 nM. Turning to `O=C(/C=C/c1ccc(F)c(F)c1)NC1(C(=O)Nc2ccccc2)CCNCC1` [Compound 34, (E)-4-(3-(3,4-difluorophenyl)acrylamido)-N-phenylpiperidine-4-carboxamide], the equilibrium dissociation constant (Kd) in assay [1] stood at 3290 nM. Consider `CC(C)(O)CN1CCC(NC(=O)/C=C/c2ccc(F)cc2)(C(=O)NCCc2c[nH]c3ccc(F)cc23)CC1` [Compound 69, (E)-N-(2-(5-fluoro-1H-indol-3-yl)ethyl)-4-(3-(4-fluorophenyl)acrylamido)-1-(2-hydroxy-2-methylpropyl)piperidine-4-carboxamide], for which, in assay [1], the equilibrium dissociation constant (Kd) stood at 3630 nM.

In the case of `O=C(/C=C/c1ccc(F)c(Br)c1)NC1(C(=O)NCCc2c[nH]c3ccc(F)cc23)CCOCC1` [Compound 16, (E)-4-(3-(3-bromo-4-fluorophenyl)acrylamido)-N-(2-(5-fluoro-1H-indol-3-yl)ethyl)tetrahydro-2H-pyran-4-carboxamide], the Kd in assay [1] is 430 nM.

For the origin of these results see patent publication US20080227823A1, “AMIDE DERIVATIVES AS CALCIUM CHANNEL BLOCKERS” (priority 2007, published 2008).
